Source: patent US20260234165A1, “MACROCYCLIC COMPOUNDS, PREPARATION METHOD THEREFOR, AND USE THEREOF” (GENFLEET THERAPEUTICS (SHANGHAI) INC., priority 2004, published 2026)

These compounds were tested on NCI-H441 cells (assay: 3D cell proliferation assay (CellTiter Glo-3D), NCI-H441). Conditions: 3D cell proliferation (CellTiter Glo-3D), medium with 2% FBS, read-out: H441 AP IC50.
Format: cell-based, human
Method in brief: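 Five-day treatment of NCI-H441 or AsPC-1 cells (800/well, 2% FBS RPMI-1640, 0.1% DMSO) with graded compound concentrations; ATP content by CellTiter-Glo 3D; IC50 fitted.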

IC50	Compound
0.15 nM	CCn1c(-c2cc(C#CCN3CCOC[C@H]3C)cnc2[C@H](C)OC)c2c3cc(ccc31)-c1csc(n1)C[C@H](NC(=O)[C@H]1[C@H](C)[C@@H]1C)C(=O)N1CCCC(N1)C(=O)OCC(C)(C)C2 (atropisomer, axis not shown; (Ra)) [Compound Z813]
0.28 nM	CCn1c(-c2cc(C#CCN(C)CCOC)cnc2[C@H](C)OC)c2c3cc(ccc31)-c1csc(n1)C[C@H](NC(=O)[C@H]1[C@H](C)[C@@H]1C)C(=O)N1CCC[C@H](N1)C(=O)OCC(C)(C)C2 (atropisomer, axis not shown; (Ra)) [Compound Z788]
0.27 nM	CCn1c(-c2cc(C#CCN3C4CCC3COC4)cnc2[C@H](C)OC)c2c3cc(ccc31)-c1csc(n1)C[C@H](NC(=O)[C@H]1[C@H](C)[C@@H]1C)C(=O)N1CCC[C@H](N1)C(=O)OCC(C)(C)C2 (atropisomer, axis not shown; (Ra)) [Compound Z711, (1r,2R,3S)—N-((6^3S,4S,Z)—(Ra)-1^2-(5-(3-(3-oxa-8-azabicyclo[3.2.1]octan-8-yl)prop-1-yn-1-yl)-2-((S)-1-methoxyethyl)pyridin-3-yl)-1^1-ethyl-10,10-dimethyl-5,7-dioxo-6^1,6^2,6^3,6^4,6^5,6^6-hexahydro-1^1H-8-oxa-2(4,2)-thiazola-1(5,3)-indola-6(1,3)-pyridazinacycloundecaphane-4-yl)-2,3-dimethylcyclopropane-1-carboxamide]
0.63 nM	CCn1c(-c2cc(C#CCN3CCCOCC3)cnc2C(C)C)c2c3cc(ccc31)-c1csc(n1)C[C@H](NC(=O)[C@H]1[C@H](C)[C@@H]1C)C(=O)N1CCC[C@H](N1)C(=O)OCC(C)(C)C2 (atropisomer, axis not shown; (Sa)) [Compound Z811-2, (1r,2R,3S)—N-((6^3S,4S,Z)—(Sa)-1-(5-(3-(1,4-oxazepan-4-yl)prop-1-yn-1-yl)-2-isopropylpyridin-3-yl)-1^1-ethyl-10,10-dimethyl-5,7-dioxo-6^1,6^2,6^3,6^4,6^5,6^6-hexahydro-1^1H-8-oxa-2(4,2)-thiazola-1(5,3)-indola-6(1,3)-pyridazinacycloundecaphane-4-yl)-2,3-dimethylcyclopropane-1-carboxamide]
0.17 nM	CO[C@@H](C)c1ncc(C#CCN2CCCOCC2)cc1-c1c2c3cc(ccc3n1CC(F)(F)F)-c1csc(n1)C[C@H](NC(=O)[C@H]1[C@H](C)[C@@H]1C)C(=O)N1CCC[C@H](N1)C(=O)OCC(C)(C)C2 (atropisomer, axis not shown; (Ra)) [Compound Z700, N-((6^3S,4S,Z)-1^1-(2,2,2-trifluoroethyl)-(Ra)-1^2-(2-((S)-1-methoxyethyl)-(5-(3-(1,4-oxazepan-4-yl)prop-1-yn-1-yl))-pyridin-3-yl)-10,10-dimethyl-5,7-dioxo-6^1,6^2,6^3,6^4,6^5,6^6-hexahydro-1^1H-8-oxa-2(4,2)-thiazola-1(5,3)-indola-6(1,3)-pyridazinacycloundecaphane-4-yl)-2,3-dimethylcyclopropane-1-carboxamide]

Same assay, conditions: Homo sapiens, NCI-H441, 3D cell proliferation (CellTiter Glo-3D), medium with 2% FBS, read-out: H441 AP IC50

IC50	Compound
1.16 nM	CCn1c(-c2cc(C#CCN3CCS(=O)(=O)CC3)cnc2[C@H](C)OC)c2c3cc(ccc31)-c1csc(n1)C[C@H](Nc1nnc3cc(C)ccn13)C(=O)N1CCC[C@H](N1)C(=O)OCC(C)(C)C2 (atropisomer, axis not shown; (Ra)) [Compound Z911, (6^3S,4S,Z)—(Ra)-1^2-(5-(3-(1,1-dioxidothiomorpholino)prop-1-yn-1-yl)-2-((S)-1-methoxyethyl)pyridin-3-yl)-1^1-ethyl-10,10-dimethyl-4-((7-methyl-[1,2,4]triazolo[4,3-a]pyridin-3-yl)amino)-6^1,6^2,6^3,6^4,6^5,6^6-hexahydro-1^1H-8-oxa-2(4,2)-thiazola-1(5,3)-indola-6(1.3)-pyridazinacycloundecaphane-5,7-dione]
3.62 nM	CCO[C@@H](C)c1ncc(N2CCN(CCS(C)(=O)=O)CC2)cc1-c1c2c3cc(ccc3n1CC)-c1csc(n1)C[C@H](NC(=O)[C@H]1[C@H](C)[C@@H]1C)C(=O)N1CCC[C@H](N1)C(=O)OCC1(CC1)C2 (single isomer, unassigned) [Compound Z378-1]
0.06 nM	CCn1c(-c2cc(C#CCN3CCS(=O)(=O)CC3)cnc2[C@H](C)OC)c2c3cc(ccc31)-c1csc(n1)C[C@H](NC(=O)[C@H]1[C@H](C)[C@@H]1C)C(=O)N1CCC[C@H](N1)C(=O)OCC(C)(C)C2 (atropisomer, axis not shown; (Ra)) [Compound Z838, (1r,2R,3S)—N-((6^3S,4S,Z)—(Ra)-1^2-(5-(3-(1,1-dioxidothiomorpholino)prop-1-yn-1-yl)-2-((S)-1-methoxyethyl)pyridin-3-yl)-1^1-ethyl-10,10-dimethyl-5,7-dioxo-6^1,6^2,6^3,6^4,6^5,6^6-hexahydro-1^1H-8-oxa-2(4,2)-thiazola-1(5,3)-indola-6(1,3)-pyridazinacycloundecaphane-4-yl)-2,3-dimethylcyclopropane-1-carboxamide]
0.14 nM	CCn1c(-c2cc(C#CCN3CCN(C)C(=O)C3)cnc2[C@H](C)OC)c2c3cc(ccc31)-c1csc(n1)C[C@H](NC(=O)[C@H]1[C@H](C)[C@@H]1C)C(=O)N1CCC[C@H](N1)C(=O)OCC(C)(C)C2 (atropisomer, axis not shown; (Ra)) [Compound Z793]
0.31 nM	CCn1c(-c2cc(C#CCN3CCCOCC3)cnc2[C@H](C)OC)c2c3cc(ccc31)-c1csc(n1)C[C@H](NC(=O)[C@H]1[C@H](C)[C@@H]1C)C(=O)N1CCC[C@H](N1)C(=O)OCC(C)(C)C2 (single isomer, unassigned) [Compound Z504]
0.83 nM	CCn1c(-c2cc(C#CCN3CCC3)cnc2[C@H](C)OC)c2c3cc(ccc31)-c1csc(n1)C[C@H](NC(=O)[C@H]1[C@H](C)[C@@H]1C)C(=O)N1CCC[C@H](N1)C(=O)OCC(C)(C)C2 (single isomer, unassigned) [Compound Z554]
1.14 nM	CCn1c(-c2cc(C#CCN3CCC(C(F)(F)F)CC3)cnc2[C@H](C)OC)c2c3cc(ccc31)-c1csc(n1)C[C@H](NC(=O)[C@H]1[C@H](C)[C@@H]1C)C(=O)N1CCC[C@H](N1)C(=O)OCC(C)(C)C2 (atropisomer, axis not shown; (Ra)) [Compound Z778]
0.61 nM	CCn1c(-c2cc(C#CCN3CCCOCC3)cnc2[C@H](C)OC)c2c3cc(ccc31)-c1csc(n1)C[C@H](NC(=O)CC(C)C)C(=O)N1CCC[C@H](N1)C(=O)OCC(C)(C)C2 (single isomer, unassigned) [Compound Z803]
0.26 nM	CCn1c(-c2cc(C#CCN3CCCN(C)CC3)cnc2[C@H](C)OC)c2c3cc(ccc31)-c1csc(n1)C[C@H](NC(=O)[C@H]1[C@H](C)[C@@H]1C)C(=O)N1CCC[C@H](N1)C(=O)OCC(C)(C)C2 (atropisomer, axis not shown; (Ra)) [Compound Z802, (1r,2R,3S)—N-((6^3S,4S,Z)-1^2-(5-(3-(4-methyl-1,4-diaza-1-yl)prop-1-yn-1-yl)-(Ra)-2-((S)-1-methoxyethyl)pyridin-3-yl)-1^1-ethyl-10,10-dimethyl-5,7-dioxo-6^1,6^2,6^3,6^4,6^5,6^6-hexahydro-1^1H-8-oxa-2(4,2)-thiazola-1(5,3)-indola-6(1,3)-pyridazinacycloundecaphane-4-yl)-2,3-dimethylcyclopropane-1-carboxamide]
0.45 nM	CCn1c(-c2cc(C#CCN3CCCOCC3)cnc2[C@H](C)OC)c2c3cc(ccc31)-c1csc(n1)C[C@H](NC(=O)[C@H]1C[C@@H]1C)C(=O)N1CCC[C@H](N1)C(=O)OCC(C)(C)C2 (single isomer, unassigned) [Compound Z604]
1.2 nM	CCn1c(-c2cc(N3CCN4CC5(CC5)OC[C@@H]4C3)cnc2[C@H](C)OC)c2c3cc(ccc31)-c1csc(n1)C[C@H](NC(=O)[C@H]1[C@H](C)[C@@H]1C)C(=O)N1CCC[C@H](N1)C(=O)OCC1(CC1)C2 (atropisomer, axis not shown; (Ra)) [Compound Z13]
2.14 nM	CCn1c(-c2cc(N3CCN(CCS(C)(=O)=O)CC3)cnc2[C@H](C)OC)c2c3cc(ccc31)-c1csc(n1)C[C@H](NC(=O)[C@H]1[C@H](C)[C@@H]1C)C(=O)N1CCC[C@H](N1)C(=O)OCC1(CC1)C2 (single isomer, unassigned) [Compound Z367]
0.3 nM	CCn1c(-c2cc(C#C[C@@H]3COCCN3C)cnc2[C@H](C)OC)c2c3cc(ccc31)-c1csc(n1)C[C@H](NC(=O)[C@H]1[C@H](C)[C@@H]1C)C(=O)N1CCC[C@H](N1)C(=O)OCC(C)(C)C2 (atropisomer, axis not shown; (Ra)) [Compound Z672, (1r,2R,3S)—N-((6^3S,4S,Z)-1^1-ethyl-(Ra)-1^2-(2-((S)-1-methoxyethyl)-5-(((R)-4-methylmorpholin-3-yl)ethynyl)pyridin-3-yl)-10,10-dimethyl-5,7-dioxo-6^1,6^2,6^3,6^4,6^5,6^6hexahydro-1^1H-8-oxa-2(4,2)-thiazola-1(5,3)-indola-6(1,3)-pyridazinacycloundecaphane-4-yl)-2,3-dimethylcyclopropane-1-carboxamide]
1.04 nM	CCn1c(-c2cc(C#CCN3CCCOCC3)cnc2[C@H](C)OC)c2c3cc(ccc31)-c1csc(n1)C[C@H](NC(=O)CC1CC1)C(=O)N1CCC[C@H](N1)C(=O)OCC(C)(C)C2 (atropisomer, axis not shown; (Ra)) [Compound Z915]
